Experiments:
Type in all cases: cell-based
[1] = biological target: T1, KOR (Homo sapiens, UniProt P41145); test: DISCOVERX β-arrestin […] assay, agonist mode (KOR DRx); details: for EC50: agonist; for Emax (%): at highest concentration tested, compared to dynorphin A (Emax=100%)
Source text: (§1) In this campaign, two assay platforms were employed to evaluate KOR activity and selectivity: the KOR1 DISCOVERX β-Arrestin […] assay and an imaging based β-arrestin translocation assay for confirmatory and selectivity assays. The KOR1 DISCOVERX β-Arrestin […] assay is a commercial platform for direct measurement of GPCR (G protein-coupled receptor) activation by detection of β-Arrestin binding to the KOR. […] In cells that stably express these fusion proteins, ligand stimulation results in the recruitment of β-Arrestin by the GPCR. This interaction encourages the complementation of the two β-galactosidase fragments resulting in the formation of a functional enzyme that converts substrate in the assay medium to a detectable signal.

[2] = biological target: MOR (Homo sapiens, UniProt P35372); test: High content imaging based β-arrestin translocation assay, MOR agonist (MOR HCS); details: n = 2, read-out: Average Potency MOR HCS
Source text: as §1, with “signal. The imaging based high-content β-arrestin translocation assay is based upon the redistribution of β-Arrestin linked to green fluorescent protein (GFP) to the cell surface and detection (Barak, et al. (1997) J. Biol. Chem. 272:27497-27500).” for “signal.”
(§2) Initially, a portion (approximately 290,000 compounds) of the MLSMR compound collection was tested in the KOR1 DISCOVERX β-arrestin primary kappa opioid (KOP) agonist and antagonist screens (PUBCHEM AID 1777 and 1778, respectively) at a single concentration point (10 μM). […] These compounds were concurrently tested in a β-galactosidase counterscreen assay (PUBCHEM AID 1966) to assess the possibility that these compounds might inhibit the reporting enzyme. […] The KOR:DOR:MOR selectivity of the compounds was determined using the analogous β-arrestin translocation assays for the DOR (PUBCHEM AID 2370 and 2357, for agonists and antagonist, respectively) and the MOR (PUBCHEM AID 2352 and 2420, for agonists and antagonists, respectively).

[3] = biological target: T1, KOR; test: High content imaging based β-arrestin translocation assay, KOR agonist (KOR HCS); details: n = 2, read-out: Average Potency KOR HCS
Source text: as §1, with “signal. The imaging based high-content β-arrestin translocation assay is based upon the redistribution of β-Arrestin linked to green fluorescent protein (GFP) to the cell surface and detection (Barak, et al. (1997) J. Biol. Chem. 272:27497-27500).” for “signal.”
as §2

[4] = n = 4, Table 11, read-out: Potency, EC50 (DRx)
[5] = n = 3, read-out: Average Potency KOR DRx

Chain of MOR (P35372 whole entry): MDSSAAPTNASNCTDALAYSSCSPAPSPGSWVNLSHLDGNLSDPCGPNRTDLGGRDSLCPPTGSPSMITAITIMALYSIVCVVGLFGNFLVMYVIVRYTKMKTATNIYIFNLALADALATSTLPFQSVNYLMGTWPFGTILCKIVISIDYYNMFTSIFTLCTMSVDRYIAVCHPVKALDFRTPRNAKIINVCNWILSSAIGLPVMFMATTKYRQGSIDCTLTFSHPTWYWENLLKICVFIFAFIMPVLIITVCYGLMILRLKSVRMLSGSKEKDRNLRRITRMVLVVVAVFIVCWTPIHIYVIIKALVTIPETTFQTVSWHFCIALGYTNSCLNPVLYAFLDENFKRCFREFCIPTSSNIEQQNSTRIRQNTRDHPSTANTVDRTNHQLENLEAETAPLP
T1 sequence (P41145 whole entry, the tested form may be a part): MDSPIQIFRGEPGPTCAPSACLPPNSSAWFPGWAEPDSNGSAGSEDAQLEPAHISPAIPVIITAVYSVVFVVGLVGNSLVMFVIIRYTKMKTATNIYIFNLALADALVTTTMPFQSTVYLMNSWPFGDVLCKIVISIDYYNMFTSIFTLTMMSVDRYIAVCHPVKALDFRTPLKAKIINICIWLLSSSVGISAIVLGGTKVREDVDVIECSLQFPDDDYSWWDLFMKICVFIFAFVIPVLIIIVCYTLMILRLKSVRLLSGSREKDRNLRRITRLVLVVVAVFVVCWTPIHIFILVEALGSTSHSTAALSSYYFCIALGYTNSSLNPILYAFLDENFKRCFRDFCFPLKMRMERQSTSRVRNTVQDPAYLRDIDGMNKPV

SMILES | EC50 [1, 4] [µM] | EC50 [1, 5] [µM] | Emax (%) [1] [%] | EC50 [2] [µM] | EC50 [3] [µM] | Emax [1] [%]
Clc1ccccc1Cn1c(SCc2ccccc2)nnc1-c1ccccn1 [Entry 13] | > 20 |  |  |  |  | 
FC(F)(F)c1cc(CSc2nnc(-c3ccccn3)n2Cc2ccco2)ccc1Cl [Compound 2{10}] |  | 0.5 | ~122 | > 32 | 0.46 | 
CC(=O)Oc1ccc(CSc2nnc(-c3ccccn3)n2Cc2cccs2)cc1 [Compound 2{32}] |  | > 20 |  | > 32 | > 32 | 
Cc1cc(C)c(CSc2nnc(-c3ccccn3)n2Cc2ccco2)c(C)c1 [Compound 2{18}] |  |  | ~100 | > 32 |  | 
Fc1cc(F)cc(CSc2nnc(-c3ccccn3)n2Cc2ccco2)c1 [Compound 2{16}] |  | 7.89 | ~104 | > 32 | 21 | 
Fc1ccc(CSc2nnc(-c3ccccn3)n2Cc2ccco2)c(C(F)(F)F)c1 [Compound 2{45}] |  | 8.27 | ~138 | > 32 | 5.4 | 
CC(=O)Oc1ccc(CSc2nnc(-c3ccccn3)n2Cc2ccco2)cc1 [Compound 2{31}] |  | > 20 |  | > 32 | > 32 | 
Clc1ccc(CSc2nnc(-c3ccccn3)n2Cc2ccco2)c(Cl)c1 [Compound 2{1}] |  | 1.86 ± 0.07 | ~100 | > 32 | 0.93 | 
COc1ccc(Cn2c(SCc3ccccc3)nnc2-c2ccccn2)cc1 [Entry 1] | > 20 |  |  |  |  | 
Brc1ccc(CSc2nnc(-c3ccccn3)n2Cc2ccccc2)cc1 [Entry 6] | 4.06 |  |  |  |  | 
Fc1ccc(CSc2nnc(-c3ccccn3)n2Cc2cccs2)c(F)c1 [Compound 2{24}] |  | 6.74 ± 0.97 | ~155 | > 32 | 5.68 | 
Brc1ccc(CSc2nnc(-c3ccccn3)n2Cc2cccnc2)cc1 [Entry 10] | 8.51 |  |  |  |  | 
COc1ccc(Cn2c(SCc3ccc(Cl)c(Cl)c3)nnc2-c2ccccn2)cc1 [Entry 3] | 11.8 |  |  |  |  | 
FC(F)(F)c1cc(CSc2nnc(-c3ccncc3)n2Cc2ccco2)ccc1Cl [Entry 20] | > 20 |  |  |  |  | 
FC(F)(F)c1cc(CSc2nnc(-c3ccccn3)n2Cc2ccccc2Cl)ccc1Cl [Entry 16] | 4.3 |  |  |  |  | 
COc1ccc(Cn2c(SCc3ccc(Cl)c(C(F)(F)F)c3)nnc2-c2ccccn2)cc1 [Entry 4] | > 19.7 |  |  |  |  | 
COC(=O)c1ccc(CSc2nnc(-c3ccccn3)n2Cc2cccs2)cc1 [Compound 2{30}] |  | 6.14 | ~154 | > 32 | 6 | 
Fc1ccc(CSc2nnc(-c3ccccn3)n2Cc2cccs2)c(C(F)(F)F)c1 [Compound 2{46}] |  | 4.46 | ~109 | > 32 | 2.25 | 
Clc1ccc(CSc2nnc(-c3ccccn3)n2Cc2cccs2)c(Cl)c1 [Compound 2{2}] |  | 2.27 ± 0.46 | ~120 | > 32 | 8.11 | 
O=[N+]([O-])c1ccc(CSc2nnc(-c3ccccn3)n2Cc2ccco2)cc1 [Compound 2{25}] |  | 2.48 | ~120 | > 32 | 2.35 | 
Clc1ccc(CSc2nnc(-c3ccccn3)n2Cc2cccnc2)cc1Cl [Entry 11] | 0.76 |  |  |  |  | 
c1ccc(CSc2nnc(-c3ccccn3)n2Cc2ccccc2)cc1 [Entry 5] | > 20 |  |  |  |  | 
CC(C)c1ccc(CSc2nnc(-c3ccccn3)n2Cc2ccco2)cc1 [Compound 2{33}] |  | 5.97 | 165 | > 32 | 2.8 | 
Brc1ccc(CSc2nnc(-c3ccc(Br)cc3)n2Cc2ccco2)cc1 [Entry 22] | 13.5 |  |  |  |  | 
Brc1ccc(CSc2nnc(-c3ccccn3)n2Cc2cccs2)cc1 [Compound 2{4}] |  | 1.85 ± 0.11 | ~185 | > 32 | 1.1 | 
Fc1ccc(CSc2nnc(-c3ccccn3)n2Cc2cccs2)c(F)c1F [Compound 2{44}] |  | 3.04 | ~115 | > 32 | 1.7 | 

SMILES | EC50 [1, 4] [µM] | EC50 [1, 5] [µM] | Emax (%) [1] [%] | EC50 [2] [µM] | EC50 [3] [µM] | Emax [1] [%]
COC(=O)c1ccc(CSc2nnc(-c3ccccn3)n2Cc2ccco2)cc1 [Compound 2{29}] |  | 6.62 | ~125 | > 32 | 18.5 | 
c1ccc(CSc2nnc(-c3ccccn3)n2Cc2cccnc2)cc1 [Entry 9] | > 20 |  |  |  |  | 
FC(F)(F)c1ccc(CSc2nnc(-c3ccccn3)n2Cc2ccco2)cc1 [Compound 2{14}] |  | 2.77 | ~166 | > 32 | 1.25 | 
N#Cc1ccc(CSc2nnc(-c3ccccn3)n2Cc2ccco2)cc1 [Compound 2{27}] |  | 6.79 | ~105 | > 32 | 19 | 
CC(C)(C)c1ccc(CSc2nnc(-c3ccccn3)n2Cc2ccco2)cc1 [2{6}] |  | 2.01 ± 0.07 |  | > 32 | 0.6 | ~100
Brc1ccc(-c2nnc(SCc3ccccc3)n2Cc2ccco2)cc1 [Entry 21] | > 20 |  |  |  |  | 
COc1cccc(CSc2nnc(-c3ccccn3)n2Cc2cccs2)c1 [Compound 2{38}] |  | 8.72 | ~100 | > 32 | 12.2 | 
FC(F)(F)c1cc(CSc2nnc(-c3ccc(Br)cc3)n2Cc2ccco2)ccc1Cl [Entry 24] | 13.3 |  |  |  |  | 
COc1ccc(Cn2c(SCc3ccc(Br)cc3)nnc2-c2ccccn2)cc1 [Entry 2] | > 20 |  |  |  |  | 
N#Cc1ccc(CSc2nnc(-c3ccccn3)n2Cc2cccs2)cc1 [Compound 2{28}] |  | 4.64 | ~142 | > 32 | 3.5 | 
FC(F)(F)c1cc(CSc2nnc(-c3ccccn3)n2Cc2ccccc2)ccc1Cl [Entry 8] | 2.22 |  |  |  |  | 
Cc1c(CSc2nnc(-c3ccccn3)n2Cc2cccs2)cccc1[N+](=O)[O-] [Compound 2{40}] |  | 5.81 | ~105 | > 32 | 4.2 | 
Cc1ccc(CSc2nnc(-c3ccccn3)n2Cc2cccs2)cc1 [Compound 2{13}] |  | 3.59 ± 0.3 | ~170 | > 32 | 2.38 | 
c1ccc(CSc2nnc(-c3ccncc3)n2Cc2ccco2)cc1 [Entry 17] | > 20 |  |  |  |  | 
Clc1ccc(CSc2nnc(-c3ccc(Br)cc3)n2Cc2ccco2)cc1Cl [Entry 23] | 11 |  |  |  |  | 
Cc1c(CSc2nnc(-c3ccccn3)n2Cc2ccco2)cccc1[N+](=O)[O-] [Compound 2{39}] |  | 8.21 | ~128 | > 32 | 12 | 
O=[N+]([O-])c1ccc(CSc2nnc(-c3ccccn3)n2Cc2cccs2)cc1 [Compound 2{26}] |  | 1.24 | ~128 | > 32 | 0.96 | 
FC(F)(F)c1ccc(CSc2nnc(-c3ccccn3)n2Cc2cccs2)cc1 [Compound 2{15}] |  | 1.23 | ~149 | > 32 | 0.6 | 
Clc1cccc(CSc2nnc(-c3ccccn3)n2Cc2ccco2)c1 [Compound 2{7}] |  | 6.76 ± 0.01 |  | > 32 | 3.63 | ~100
Clc1ccc(CSc2nnc(-c3ccccn3)n2Cc2ccccc2)cc1Cl [Entry 7] | 1.24 |  |  |  |  | 
Brc1ccc(CSc2nnc(-c3ccccn3)n2Cc2ccco2)cc1 [Compound 2{3}] |  | 1.92 ± 0.05 | ~100 | > 32 | 1.36 | 
Clc1ccc(CSc2nnc(-c3ccccn3)n2Cc2cccs2)cc1Cl [2{9}, 2-(5-((3,4-Dichlorobenzyl)thio)-4-(thiophen-2-ylmethyl)-4H-1,2,4-triazol-3-yl)pyridine] |  | 0.73 ± 0.11 |  | > 32 | 0.43 | ~135
Cc1cc(C)c(CSc2nnc(-c3ccccn3)n2Cc2cccs2)c(C)c1 [Compound 2{19}] |  | > 20 |  | > 32 | 9.5 | 
Clc1ccccc1CSc1nnc(-c2ccccn2)n1Cc1cccs1 [Compound 2{48}] |  | 10.2 | ~100 | > 32 | 4.1 | 
Fc1ccc(CSc2nnc(-c3ccccn3)n2Cc2ccco2)c(F)c1F [Compound 2{43}] |  | 7 | ~140 | > 32 | 5.3 | 

Reference: patent US9345703B2, “Kappa opioid receptor effectors and uses thereof” (University of Kansas, priority 2011, dated 2016)
